For two substances, fragment found and not cleaved results are on record in paper PMC3348578 (2009).

Series [1] relates to DPP4-like protease. The series is described as follows: honeybee venom gland extracts. Particulars: cited from earlier work.
Series [2] concerns FAP (purified recombinant FAP; His-tagged FAP lacking the transmembrane domain). The series is described as follows: purified FAP in FAP assay buffer containing 100 mmol/L Tris, 100 mmol/L NaCl. The following applies: 37°C, up to 8 h.

For “APEPEPAPEPEAEADAEADPEAGIGAVLKVLTTGLPALISWIKRKRQQ-NH2”, in series [1], the fragment found was 11 dipeptide fragments.

As for NH2-GIGAVLKVLTTGLPALISWIKRKRQQ-NH2, the not cleaved result in series [2] was “not cleaved by FAP”.
